Reference: patent EP0129628A1, “Medicine, especially useful in psychiatry, which uses as the active constituent a lithium N-alkylcarbamoyl phosphate” (Richard, Marcel, priority 1983, dated 1985)

Legend:
motilité = assay: motility test; assay type: in vivo, souris et/ou des chiens; conditions: dose de 13,5 MEq par kilo (carbonate de lithium: dose correspondante)
[1] = acute toxicity (DL50), oral route; conditions: mouse, in vivo, souris, par voie orale
Experimental: L'invention concerne enfin les médicaments qui contiennent au moins un produit de formule (1). Il a été trouvé en effet que les produits de formule (1) avaient une toxicité faible (la DL50 pour la souris et pour le produit de formule 1 dans lequel R est CH3 étant environ 3 200 mg/kg par voie orale) et une activité pharmacologique qui peut s'exprimer comme suit : • - diminution et/ou blocage des systèmes dopaminer- giques, • - augmentation, au moins transitoire, de la systhè- se de la sérotonine, • - pouvoir analgésique, les conséquences de ces actions se retrouvant dans les constatations suivantes : • - diminution de l'agressivité, • - diminution de la motilité et de la curiosité, • - protection contre les convulsions.

test plaque chaude = assay: comparative analgesic activity (hot plate test); assay type: in vivo, souris et/ou des chiens; conditions: dose de 13 MEq par kilo
[2] = test system: convulsions produites par un électrochoc; assay: convulsions produced by electroshock; assay type: in vivo, souris et/ou des chiens; conditions: dose de 5 MEq par kilo
[3] = test system: agressivité induite par des chocs électriques; assay: aggressiveness induced by electric shocks; assay type: in vivo, souris et/ou des chiens
[4] = test system: systèmes dopaminer- gines; assay: test evaluating blockade of the dopaminergic systems; assay type: in vivo, souris et/ou des chiens
sécrétion de sérotonine = assay: test on serotonin secretion; assay type: in vivo, souris et/ou des chiens

Compound	la motilité baisse (motilité)	LD50 [1]	protection (test plaque chaude)	protection des sujets [2]	dose active [3]	dose active à 100 % [4]	dose active après 24 heures (sécrétion de sérotonine)	dose active à 50 % [4]
CNC(=O)OP(=O)(O)O [N-méthyl-carbamoylphosphate de lithium]	36%	~3200 mg/kg	42%	40%	10 MEq par kilo	6,75 MEq par kilo	6,75 MEq par kilo	
O=C(O)O [carbonate de lithium, reference compound]	12%		27%				10 MEq par kilo	10,115 MEq par kilo
